Measured values as given in article PMC6267684, “Pharmacokinetic evaluation of the PNC disassembler metarrestin in wild-type and Pdx1-Cre;LSL-Kras^G12D/+;Tp53^R172H/+ (KPC) mice, a genetically engineered model of pancreatic cancer” (Cancer Chemotherapy and Pharmacology, 2018).
Where two headings read alike, the source gives them in different places.

How the values were obtained:
[1] = Freeze-thaw stability in mouse plasma; format: in vitro ADME; settings: after three freeze-thaw cycles
Method: Bioanalytical method validation was performed in mouse plasma and mouse liver. The linear calibration range for metarrestin was 1.0–1000 ng/mL for plasma and 5.0–20,000 ng/g for liver homogenate. The lower limit of quantitation of the assay was 1.0 ng/mL in plasma and 5.0 ng/g in liver homogenate. The accuracy of calibration standards was between within 8% of the nominal values. Intra-assay variance and deviation from nominal values were calculated at low quality-control (LOQ, 1.0 ng/mL plasma and 5.0 ng/g liver), middle quality-control (MQC, 10.0 ng/mL and 500 ng/g), and high quality-control (HQC, 1000 ng/mL and 20,000 ng/g) levels for six replicates, each of the same analytical run (Suppl. Tables 1, 2). The variance of the QC samples (CV%, […]) ranged from 1.0 to 5.1% and the deviation was between 3 and 6% from nominal values. No endogenous interference was found at the retention time for metarrestin and internal standard as verified by testing control blank plasma and liver homogenate. Metarrestin was stable in mouse plasma after three freeze-thaw cycles.

FOXO6 mRNA = FOXO6 mRNA expression in KPC tumors (RNA-seq, qRT-PCR); format: in vivo, KPC mice; settings: vs intratumor exposure
Method: Pancreas cancer tissues samples or adjacent, uninvolved normal pancreas from vehicle or metarrestin-treated KPC animals collected at 0, 3, and 9 h after last dose of 25 mg/kg metarrestin were homogenized in PureLink Lysis Buffer (PureLink RNA Mini Kit, ThermoFisher Scientific Waltham, MA) at 4 °C using a TissueLyser II bead mill (Qiagen, Valencia, CA, manufactured by Retsch, Newtown, PA). Total RNA was isolated using the Life Technologies PureLink® RNA Mini Kit, quantified on a NanoDrop 1000 spectrophotometer (ThermoFisher Scientific, Waltham, MA). […]
Total RNA libraries were prepared using the Illumina TruSeq® Stranded Total RNA LT (with Ribo-Zero™Human/Mouse/Rat) kit according the manufacturer’s instructions. […] Sequencing output ranged from 89 to 132 million reads per sample. Adapter trimming and base filtering was done using Trimmomatic software version 0.3, and the trimmed reads were aligned to mouse reference genome (GRCm38/mm10) and Ensembl annotation (version 70) using TopHat2 version 2.0.8.
A total of 450 ng of total RNA was used for single-strand complementary DNA synthesis using a SuperScript III First-Strand kit (Invitrogen, Carlsbad, CA). […] Reaction products were read in a Bio-Rad CFX96 Touch real-time PCR detection system (Bio-Rad Laboratories, Hercules, CA). […]

[2] = Steady-state PK in KPC mice fed metarrestin-infused chow; format: in vivo; settings: for Kp / AUC0-24hr Ratio (Tissue/Plasma): 10 mg/kg/day; for Kp / Cmax / Tmax / AUC0-24hr Ratio (Tissue/Plasma): day 10, chow; for Kp: read-out: AUC0-24hr Ratio (Tissue/Plasma); for concentration at 0 h / concentration at 3 h / concentration at 6 h / concentration at 9 h / concentration at 12 h / concentration at 15 h / concentration at 24 h: day 10, 10 mg/kg/day (70 ppm) chow; for Cmax / Tmax: po
[3] = KPC, mouse, plasma, oral, read-out: Plasma concentration
[4] = KPC, mouse, liver, target dose 10 mg/kg/day
[5] = KPC, mouse, plasma, target dose 10 mg/kg/day
[6] = KPC, mouse, spleen, target dose 10 mg/kg/day
[7] = KPC, mouse, tumor, target dose 10 mg/kg/day
[8] = KPC, mouse, tumor, oral, read-out: Tumor concentration

**Q.** Which “stability in mouse plasma” value [1] does the source give for `N=c1c2c(-c3ccccc3)c(-c3ccccc3)n(Cc3ccccc3)c2ncn1[C@H]1CC[C@H](O)CC1` [metarrestin, Trans-4-(7-benzyl-4-imino-5,6-diphenyl-4,7-dihydro-3H-pyrrolo[2,3-d]pyrimidin-3-yl) cyclohexanol] here?
**A.** The value was “stable”.

**Q.** What about the “FOXO6 mRNA expression in KPC tumors” value (FOXO6 mRNA) of the same compound?
**A.** Its value is “Dose-dependent normalization”.

**Q.** What about the “intratumor AUC0–24h” value ([2]; 10 mg/kg PO chow) of the same compound?
**A.** The value was 80,600 h ng/mL.

**Q.** And the “intratumor AUC0–24h” value ([2]; 10 mg/kg PO steady-state chow)?
**A.** Its value is 96,100 h ng/mL.

**Q.** And the “intratumor AUC levels” value ([2]; 10 mg/kg dosing with solid or liquid formulations)?
**A.** The value was > 80,000 ng h/mL.

**Q.** And the Kp ([2]; KPC, mouse, liver, oral, liver/plasma, target dose 10 mg/kg/day)?
**A.** Its Kp is greater than 20.

**Q.** And the AUC(0-t) ([2]; KPC, mouse, oral, plasma, day 10, chow 70 ppm, target dose 10 mg/kg/day, read-out: AUC0-24hr)?
**A.** Its AUC(0-t) is 4160 ng·h/mL.

**Q.** What about the Kp ([2]; KPC, mouse, pancreatic tumor, oral, tumor/plasma, target dose 10 mg/kg/day) of the same compound?
**A.** The Kp was greater than 20.

**Q.** And the concentration at 0 h [2, 3]?
**A.** Its concentration at 0 h is 0.46 µM.

**Q.** What about the concentration at 3 h [2, 3] of the same compound?
**A.** The concentration at 3 h was 0.33 µM.

**Q.** What about the concentration at 6 h [2, 3] of the same compound?
**A.** The concentration at 6 h was 0.3 µM.

**Q.** What about the concentration at 9 h [2, 3] of the same compound?
**A.** Its concentration at 9 h is 0.5 µM.

**Q.** And the concentration at 12 h [2, 3]?
**A.** Its concentration at 12 h is 0.43 µM.

**Q.** And the concentration at 15 h [2, 3]?
**A.** The concentration at 15 h was 0.36 µM.

**Q.** What about the concentration at 24 h [2, 3] of the same compound?
**A.** The concentration at 24 h was 0.27 µM.

**Q.** And the Cmax [2, 4]?
**A.** The Cmax was 7250 ng/mL.

**Q.** What about the Tmax [2, 4] of the same compound?
**A.** The Tmax was 12 h.

**Q.** And the Cmax [2, 5]?
**A.** The Cmax was 237 ng/mL.

**Q.** And the Tmax [2, 5]?
**A.** Its Tmax is 9 h.

**Q.** What about the Cmax [2, 6] of the same compound?
**A.** Its Cmax is 5840 ng/mL.

**Q.** What about the Tmax [2, 6] of the same compound?
**A.** The Tmax was 15 h.

**Q.** And the Cmax [2, 7]?
**A.** Its Cmax is 5100 ng/mL.

**Q.** And the Tmax [2, 7]?
**A.** The Tmax was 9 h.

**Q.** And the Kp ([2]; KPC, mouse, spleen, oral, spleen/plasma, target dose 10 mg/kg/day)?
**A.** Its Kp is greater than 20.

**Q.** What about the concentration at 0 h [2, 8] of the same compound?
**A.** The concentration at 0 h was 7.9 µM.

**Q.** What about the concentration at 3 h [2, 8] of the same compound?
**A.** Its concentration at 3 h is 10.3 µM.

**Q.** And the concentration at 6 h [2, 8]?
**A.** Its concentration at 6 h is 8 µM.

**Q.** What about the concentration at 9 h [2, 8] of the same compound?
**A.** The concentration at 9 h was 10.8 µM.

**Q.** And the concentration at 12 h [2, 8]?
**A.** Its concentration at 12 h is 10.7 µM.

**Q.** What about the concentration at 15 h [2, 8] of the same compound?
**A.** The concentration at 15 h was 7.2 µM.

**Q.** And the concentration at 24 h [2, 8]?
**A.** Its concentration at 24 h is 6.7 µM.

**Q.** And the “AUC0-24hr Ratio (Tissue/Plasma)” value ([2]; liver/plasma, target dose 10 mg/kg/day)?
**A.** The value was 37.

**Q.** What about the AUC0-24hr ([2]; liver, day 10, chow 70 ppm, target dose 10 mg/kg/day) of the same compound?
**A.** The AUC0-24hr was 153000 ng●hr/mL.

**Q.** And the “AUC0-24hr Ratio (Tissue/Plasma)” value ([2]; spleen/plasma, target dose 10 mg/kg/day)?
**A.** The value was 26.

**Q.** What about the AUC0-24hr ([2]; spleen, day 10, chow 70 ppm, target dose 10 mg/kg/day) of the same compound?
**A.** Its AUC0-24hr is 109000 ng●hr/mL.

**Q.** And the “AUC0-24hr Ratio (Tissue/Plasma)” value ([2]; tumor/plasma, target dose 10 mg/kg/day)?
**A.** The value was 23.

**Q.** What about the AUC0-24hr ([2]; tumor, day 10, chow 70 ppm, target dose 10 mg/kg/day) of the same compound?
**A.** Its AUC0-24hr is 96100 ng●hr/mL.
